Laboratory results taken from US20210330741A1, “POLYPEPTIDE THERAPEUTICS AND USES THEREOF” (BOARD OF REGENTS, THE UNIVERSITY OF TEXAS SYSTEM, priority 2015, published 2021).
Where no end group is shown, it is not given here.

Type: physicochemical
Description: Formulation preparation—Lyophilized cake of the CSP 7 mer was prepared using lyophilization. Five hundred μg/mL of the CSP 7 mer solution was prepared as follows: the peptide powder was dissolved in DPBS with minimal volume of ammonium hydroxide (pH 7-8) and 1.5% w/v of mannitol was added in to the solution. The solution was sterile filtered using 0.2 μm SFCA sterile syringe filter (Corning Inc., Corning, N.Y.). Effect of filtration was also tested. One milliliter of the filtrate was filled into a borosilicate glass vial and lyophilized using a VirTis Advantage Lyophilizer (VirTis Company Inc., Gardiner, N.Y.). Lyophilization cycle parameters were set as outlined in Table 2. Primary drying time was varied by number of samples. Nebulization study of the CSP 7 mer peptide—Lyophilized peptide was reconstituted with sterile water for injection (500 μg/mL). […] The condensate of each sample was collected in a polypropylene tube and kept at 5° C. until analyzed. The amount of peptide in each sample was analyzed using high performance liquid chromatography (HPLC) and the degradation products was detected using liquid chromatography mass spectroscopy (LC/MS). Chromatographic conditions—Samples were analyzed using a Dionex 3000 high performance liquid chromatography (HPLC) system (Thermo Fisher Scientific, Fair Lawn, N.J.) with a wavelength of 220 nm. […]

- percent recovery of the peptide (chemical assay, % of peptide remaining): did not have an influence
Substance: FTTFTVT [CSP-7, FTTFTVT]
